Residues, ends and D or L forms follow the SMILES beside them. *: point of attachment. Cbz = O=C(OCc1ccccc1)*; NHOH = ON*
Legend:
Experiment in all cases: biochemical
[1] = target: Leucurolysin-a (Leuc-a) (Bothrops leucurus, UniProt P84907)
[2] = target: T1, Atroxlysin-I (Atr-I) (Bothrops atrox, UniProt P85420)
[3] = target: T1, Atroxlysin-I (Atr-I); format: binding

Sequence of Leucurolysin-a (Leuc-a) (P84907 whole entry, looked up): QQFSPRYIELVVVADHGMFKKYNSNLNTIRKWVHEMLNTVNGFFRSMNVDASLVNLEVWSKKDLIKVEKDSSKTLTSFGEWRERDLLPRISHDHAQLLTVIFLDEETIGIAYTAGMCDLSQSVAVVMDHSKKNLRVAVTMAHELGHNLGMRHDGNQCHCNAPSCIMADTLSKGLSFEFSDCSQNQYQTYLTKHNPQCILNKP
T1 sequence (P85420 whole entry, added parts left off): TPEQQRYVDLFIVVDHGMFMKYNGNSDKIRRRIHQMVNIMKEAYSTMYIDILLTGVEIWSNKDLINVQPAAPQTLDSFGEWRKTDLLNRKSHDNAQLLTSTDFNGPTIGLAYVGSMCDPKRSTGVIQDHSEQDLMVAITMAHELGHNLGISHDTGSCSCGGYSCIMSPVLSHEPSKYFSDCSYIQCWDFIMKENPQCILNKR

| Compound | Hill coef. [1] | IC50 [1] [nM] | Hill coef. [2] | IC50 [2] [nM] | Ki [3] [nM] | enthalpic contribution [3] [kcal/mol] | entropic contribution [3] [cal/K/mol] |
| --- | --- | --- | --- | --- | --- | --- | --- |
| CNC(=O)[C@H](Cc1ccccc1)NC(=O)[C@H](CC(C)C)[C@H](CSc1cccs1)C(=O)NO [BAT, batimastat] | 4.91 | 12000 ± 1000 | 0.85 | 50 ± 30 |  |  |  |
| CC(C)C[C@H](NC(=O)[C@@H]1CCCN1C(=O)OCc1ccccc1)C(=O)N[C@@H](C)C(=O)NO [COL, collagenase-I inhibitor] (Cbz-Pro-Leu-Ala-{NHOH}) | 1.65 | 6000 ± 2000 | 2.28 | 8000 ± 2000 |  |  |  |
| CC(C)(NS(=O)(=O)c1ccc(Oc2ccc(F)cc2)cc1)C(=O)NO [CP4, CP471474] | 0.55 | 210 ± 110 | 2.37 | 20 ± 10 | 160 ± 10 | -3.8 | 18.4 |
| CNC(=O)[C@@H](NC(=O)[C@H](CC(C)C)[C@H](O)C(=O)NO)C(C)(C)C [MAR, marimastat] | 0.78 | 690 ± 20 | 2.05 | 80 ± 10 | 60 ± 10 | -1.5 | 28.2 |
| CNC(=O)[C@H](CCc1ccccc1)NC(=O)[C@H](CC(=O)NO)CC(C)C [MMP, mmp-III inhibitor] | 1.34 | 360 ± 170 | 1.79 | 50 ± 10 |  |  |  |
| CC1(C)SCCN(S(=O)(=O)c2ccc(Oc3ccncc3)cc2)[C@H]1C(=O)NO [PRI, prinomastat] | 1.96 | 20 ± 10 | 0.77 | 160 ± 10 | 70 ± 50 | -0.8 | 30 |

From PMC11684173 (ACS Omega, 2024)
